Each molecule was assayed against T1, human GSK3 beta (Homo sapiens, UniProt P49841) (assay: GSK3 beta enzyme assay (ADP-Glo)). Conditions: ATP 25 μM, read-out: GSK3b IC50.
T1 construct: Recombinant full-length human GSK3 beta (expressed in Sf9 insect cells with an N-terminal His tag); His (N); purchased SignalChem G09-10H; host or cells: Sf9 insect cells
Assay type: biochemical
Method: 1. GSK3 Beta Enzyme Assay
The ability of compounds to inhibit human GSK3 beta kinase activities was determined using a commercially available ADP-Glo™ Kinase Assay kit (Promega, Cat #V9102) according to the manufacturer's protocol. The ADP-Glo™ Kinase Assay is a luminescent ADP detection assay that provides a universal, homogeneous, high-throughput screening method to measure kinase activity by quantifying the amount of ADP produced during a kinase reaction. The ADP-Glo™ Kinase Assay can be used to monitor the activity of virtually any ADP-generating enzymes (e.g., kinases or ATPases).
Recombinant full-length human GSK3 beta (expressed in Sf9 insect cells with an N-terminal His tag) was purchased from SignalChem (Cat #G09-10H). The GSK3 substrate peptide (sequence: […](pS)EDEEE) was purchased from SignalChem (Cat #G50-58). This assay, run in a 384-well plate format, is a generic method for measuring kinase activities using an ADP-Glo Kinase Assay Kit. The basic assay procedure involves two steps: (1) Enzymatic step: inhibitors are incubated with the kinase and then ATP (included in the ADP-Glo Kinase Assay Kit) and the GSK3 substrate peptide are added to start the enzymatic reaction; (2) Detection step: after the kinase reaction, first ADP-Glo™ Reagent is added to terminate the kinase reaction and deplete the remaining ATP. Second, the Kinase Detection Reagent is added to simultaneously convert ADP to ATP and allow the newly synthesized ATP to be measured using a luciferase/luciferin reaction. The light generated is measured using a luminometer.
Briefly, GSK3 beta (4 nM) in the enzymatic buffer solutions (40 mM Tris, pH 7.5, 20 mM MgCl2, 0.1 mg/ml BSA, 50 μM DTT) were mixed with various concentrations of inhibitors (dissolved in 100% DMSO). These solutions were incubated for 30 minutes at 25° C., and subsequently a mixture of substrate peptide and ATP was added with the final peptide and ATP concentrations at 13 μM and 25 μM, respectively. The final reaction mixture of enzyme-substrate-ATP-compound was incubated for 60 minutes at 25° C.
Afterwards ADP-Glo™ Reagent was added and the mixture was incubated at 25° C. for 60 minutes. Then Kinase Detection Reagent was added and the final mixture was incubated at 25° C. for 60 minutes. The luminescence signal of the final solution was measured on an Envision instrument (PerkinElmer). The percent (%) inhibition at each concentration of a compound is calculated relative to the luminescence signal in the Max and Min control wells contained within each assay plate. […] The concentrations and percent inhibition values for a test compound are plotted and the concentration of the compound required to achieve 50% inhibition (IC50) is determined with a four-parameter logistic dose response equation.

T1 sequence (P49841 whole entry): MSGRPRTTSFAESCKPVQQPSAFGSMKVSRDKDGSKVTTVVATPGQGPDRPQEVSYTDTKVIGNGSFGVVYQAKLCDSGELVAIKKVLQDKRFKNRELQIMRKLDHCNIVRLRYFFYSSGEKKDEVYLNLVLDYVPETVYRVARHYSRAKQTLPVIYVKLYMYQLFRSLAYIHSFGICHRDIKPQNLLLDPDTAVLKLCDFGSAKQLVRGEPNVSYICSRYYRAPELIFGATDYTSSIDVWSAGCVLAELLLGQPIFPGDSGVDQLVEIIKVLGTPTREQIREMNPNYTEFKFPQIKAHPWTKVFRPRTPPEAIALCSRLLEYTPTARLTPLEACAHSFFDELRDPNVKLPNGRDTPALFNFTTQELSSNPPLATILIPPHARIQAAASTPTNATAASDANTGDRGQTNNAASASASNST

`CN(C1=N/C(=C\c2ccc3c(c2)OCCO3)C(=O)N1)c1ccccc1` [Example 8, (Z)-5-((2,3-dihydrobenzo[b][1,4]dioxin-6-yl)methylene)-2-(methyl(phenyl)amino)-3,5-dihydro-4H-imidazol-4-one] and `O=C1NC(N(CC2CC2)c2ccccc2)=N/C1=C\c1ccc2c(c1)OCCO2` [Example 39, (Z)-2-((cyclopropylmethyl)(phenyl)amino)-5-((2,3-dihydrobenzo[b][1,4]dioxin-6-yl)methylene)-3,5-dihydro-4H-imidazol-4-one] cannot be ordered by IC50: > 10 µM for the first, > 10 µM for the second.

Compared with `O=C1NC(Nc2ccccc2)=N/C1=C\c1ccc(=O)[nH]c1` [Example 9, (Z)-5-((5-oxo-2-(phenylamino)-1,5-dihydro-4H-imidazol-4-ylidene)methyl)pyridin-2(1H)-one], `O=C1NC(Nc2ccccc2)=N/C1=C\c1ccc2[nH]cnc2c1` [Example 26, (Z)-5-((1H-benzo[d]imidazol-5-yl)methylene)-2-(phenylamino)-3,5-dihydro-4H-imidazol-4-one] is lower in IC50: > 10 µM for the first, 0.1 to 1 µM for the second.

`O=C1NC(N(CC2CC2)c2ccccc2)=N/C1=C\c1ccc2c(c1)OCO2` [Example 10, (Z)-5-(benzo[d][1,3]dioxol-5-ylmethylene)-2-((cyclopropylmethyl)(phenyl)amino)-3,5-dihydro-4H-imidazol-4-one] and `O=C(O)CCN(C1=N/C(=C\c2ccc3c(c2)OCO3)C(=O)N1)c1ccccc1` [Example 27, (Z)-3-((4-(benzo[d][1,3]dioxol-5-ylmethylene)-5-oxo-4,5-dihydro-1H-imidazol-2-yl)(phenyl)amino)propanoic acid] cannot be ordered by IC50: > 10 µM for the first, > 10 µM for the second.

`COc1ccc(N(C)C2=N/C(=C\c3ccc4c(c3)OCO4)C(=O)N2)cc1` [Example 12, (Z)-5-(benzo[d][1,3]dioxol-5-ylmethylene)-2-((4-methoxyphenyl)(methyl)amino)-3,5-dihydro-4H-imidazol-4-one] and `CN(C1=N/C(=C\c2ccc3c(c2)OCO3)C(=O)N1)c1cccnc1` [Example 18, (Z)-5-(benzo[d][1,3]dioxol-5-ylmethylene)-2-(methyl(pyridin-3-yl)amino)-3,5-dihydro-4H-imidazol-4-one] cannot be ordered by IC50: > 10 µM for the first, > 10 µM for the second.

First: O=C1NC(Nc2ccccc2)=N/C1=C\c1ccc2scnc2c1 [Example 14, (Z)-5-(benzo[d]thiazol-5-ylmethylene)-2-(phenylamino)-3,5-dihydro-4H-imidazol-4-one]
Second: O=C1NC(Nc2ccccc2)=N/C1=C\c1ccc2nccnc2c1 [Example 16, (Z)-2-(phenylamino)-5-(quinoxalin-6-ylmethylene)-3,5-dihydro-4H-imidazol-4-one]
The IC50 of the first is higher: > 10 µM for the first, 1 to 10 µM for the second. The second is the more potent here.

`O=C1NC(Nc2ccccc2)=N/C1=C\c1cncs1` [Example 15, (Z)-2-(phenylamino)-5-(thiazol-5-ylmethylene)-3,5-dihydro-4H-imidazol-4-one] and `O=C1NC(Nc2ccccc2)=N/C1=C\c1ccc2cn[nH]c2c1` [Example 54, (Z)-5-((1H-indazol-6-yl)methylene)-2-(phenylamino)-3,5-dihydro-4H-imidazol-4-one] cannot be ordered by IC50: > 10 µM for the first, > 10 µM for the second.

`CN(C1=N/C(=C\c2ccc3c(c2)OC(F)(F)O3)C(=O)N1)c1ccccc1` [Example 17, (Z)-5-((2,2-difluorobenzo[d][1,3]dioxol-5-yl)methylene)-2-(methyl(phenyl)amino)-3,5-dihydro-4H-imidazol-4-one] and `CN(C1=N/C(=C\c2ccc3[nH]cnc3c2)C(=O)N1)c1ccccc1` [Example 30, (Z)-5-((1H-benzo[d]imidazol-5-yl)methylene)-2-(methyl(phenyl)amino)-3,5-dihydro-4H-imidazol-4-one] cannot be ordered by IC50: > 10 µM for the first, > 10 µM for the second.

First: CN(CC1CC1)C1=N/C(=C\c2ccc3c(c2)OCCO3)C(=O)N1 [Example 19, (Z)-2-((cyclopropylmethyl)(methyl)amino)-5-((2,3-dihydrobenzo[b][1,4]dioxin-6-yl)methylene)-3,5-di hydro-4H-imidazol-4-one]
Second: CN(CCN1CCOCC1)C1=N/C(=C\c2ccc3c(c2)OCO3)C(=O)N1 [Example 20, (Z)-5-(benzo[d][1,3]dioxol-5-ylmethylene)-2-(methyl(2-morpholinoethyl)amino)-3,5-dihydro-4H-imidazol-4-one]
The IC50 of the first is higher: > 10 µM for the first, 1 to 10 µM for the second. The second is the more potent here.

`CN(C1=N/C(=C\c2ccc3ncsc3c2)C(=O)N1)c1ccc(Cl)cc1` [Example 24, (Z)-5-(benzo[d]thiazol-6-ylmethylene)-2-((4-chlorophenyl)(methyl)amino)-3,5-dihydro-4H-imidazol-4-one] and `CN(C1=N/C(=C\c2ccc3ncsc3c2)C(=O)N1)c1ccc([N+](=O)[O-])cc1` [Example 43, (Z)-5-(benzo[d]thiazol-6-ylmethylene)-2-(methyl(4-nitrophenyl)amino)-3,5-dihydro-4H-imidazol-4-one] cannot be ordered by IC50: > 10 µM for the first, > 10 µM for the second.

First: COc1ccc(NC2=N/C(=C\c3ccc4ncsc4c3)C(=O)N2)cc1 [Example 25, (Z)-5-(benzo[d]thiazol-6-ylmethylene)-2-((4-methoxyphenyl)amino)-3,5-dihydro-4H-imidazol-4-one]
Second: O=C1NC(NCc2ccccc2)=N/C1=C\c1ccc2ncsc2c1 [Example 31, (Z)-5-(benzo[d]thiazol-6-ylmethylene)-2-(benzylamino)-3,5-dihydro-4H-imidazol-4-one]
The IC50 of the first is higher: > 10 µM for the first, 1 to 10 µM for the second. The second is the more potent here.

`CN(Cc1ccccc1)C1=N/C(=C\c2ccc3ncsc3c2)C(=O)N1` [Example 28, (Z)-5-(benzo[d]thiazol-6-ylmethylene)-2-(benzyl(methyl)amino)-3,5-dihydro-4H-imidazol-4-one] and `O=C1NC(N(Cc2ccccc2)c2ccccc2)=N/C1=C\c1ccc2ncsc2c1` [Example 41, (Z)-5-(benzo[d]thiazol-6-ylmethylene)-2-(benzyl(phenyl)amino)-3,5-dihydro-4H-imidazol-4-one] fall in the same range of IC50: 1 to 10 µM for the first, 1 to 10 µM for the second.

`O=C1NC(NCCN2CCOCC2)=N/C1=C\c1ccc2ncsc2c1` [Example 29, (Z)-5-(benzo[d]thiazol-6-ylmethylene)-2-((2-morpholinoethyl)amino)-3,5-dihydro-4H-imidazol-4-one] and `CN(CCN1CCOCC1)C1=N/C(=C\c2ccc3ncsc3c2)C(=O)N1` [Example 32, (Z)-5-(benzo[d]thiazol-6-ylmethylene)-2-(methyl(2-morpholinoethyl)amino)-3,5-dihydro-4H-imidazol-4-one] fall in the same range of IC50: 1 to 10 µM for the first, 1 to 10 µM for the second.

First: CN(CC1CC1)C1=N/C(=C\c2ccc3ncsc3c2)C(=O)N1 [Example 33, (Z)-5-(benzo[d]thiazol-6-ylmethylene)-2-((cyclopropylmethyl)(methyl)amino)-3,5-dihydro-4H-imidazol-4-one]
Second: O=C1NC(NCC2CC2)=N/C1=C\c1ccc2ncsc2c1 [Example 34, (Z)-5-(benzo[d]thiazol-6-ylmethylene)-2-((cyclopropylmethyl)amino)-3,5-dihydro-4H-imidazol-4-one]
The IC50 of the first is higher: > 10 µM for the first, 1 to 10 µM for the second.

`O=C1NC(N(Cc2ccccc2)c2ccccc2)=N/C1=C\c1ccc2[nH]cnc2c1` [Example 35, (Z)-5-((1H-benzo[d]imidazol-5-yl)methylene)-2-(benzyl(phenyl)amino)-3,5-dihydro-4H-imidazol-4-one] and `NC(=O)CCN(C1=N/C(=C\c2ccc3c(c2)OCO3)C(=O)N1)c1ccccc1` [Example 36, (Z)-3-((4-(benzo[d][1,3]dioxol-5-ylmethylene)-5-oxo-4,5-dihydro-1H-imidazol-2-yl)(phenyl)amino)propanamide] cannot be ordered by IC50: > 10 µM for the first, > 10 µM for the second.

`CC(C)NC1=N/C(=C\c2ccc3scnc3c2)C(=O)N1` [Example 49, (Z)-5-(benzo[d]thiazol-5-ylmethylene)-2-(isopropylamino)-3,5-dihydro-4H-imidazol-4-one] and `O=C1NC(NC23CC4CC(CC(C4)C2)C3)=N/C1=C\c1ccc2scnc2c1` [Example 50, (Z)-2-(adamantan-1-ylamino)-5-(benzo[d]thiazol-5-ylmethylene)-3,5-dihydro-4H-imidazol-4-one] cannot be ordered by IC50: > 10 µM for the first, > 10 µM for the second.

First: O=C1NC(Nc2ccccc2)=N/C1=C\c1ccc2[nH]ccc2c1 [Example 51, (Z)-5-((1H-indol-5-yl)methylene)-2-(phenylamino)-3,5-dihydro-4H-imidazol-4-one]
Second: O=C1NC(Nc2ccccc2)=N/C1=C\c1ccc2[nH]ncc2c1 [Example 55, (Z)-5-((1H-indazol-5-yl)methylene)-2-(phenylamino)-3,5-dihydro-4H-imidazol-4-one]
The IC50 of the first is higher: > 10 µM for the first, 0.1 to 1 µM for the second.

Source: US12643887B2, “Heterocyclic derivatives with cardiomyocyte proliferation activity for treatment of heart diseases” (Tongji University, priority 2019, dated 2026)
